Data published in the NIST ThermoML archive (doi:10.1016/j.jct.2015.08.033).

Experiment: mn = molality of the nth substance listed, in mol/kg
Conditions: 100 kPa, Liquid; for speed of sound: Frequency=3 MHz, Sing-around technique in a fixed-path interferometer; for mass density: Vibrating tube method

O=S(=O)([O-])C(F)(F)F.O=S(=O)([O-])C(F)(F)F.[Ca+2] [calcium trifluoromethanesulfonate] + CN(C)C=O
Conditions | mass density, 298.15 K [kg/m3] | mass density, 303.15 K [kg/m3] | mass density, 308.15 K [kg/m3] | mass density, 313.15 K [kg/m3] | mass density, 318.15 K [kg/m3] | speed of sound, 298.15 K [m/s] | speed of sound, 303.15 K [m/s] | speed of sound, 308.15 K [m/s] | speed of sound, 313.15 K [m/s] | speed of sound, 318.15 K [m/s]
m1 = 0.01106 | 946.239 | 941.472 | 936.692 | 931.892 | 927.09 | 1457.3 | 1438.1 | 1418.8 | 1399.6 | 1380.3
m1 = 0.01878 | 947.845 | 943.075 | 938.305 | 933.505 | 928.705 | 1457.4 | 1438.2 | 1418.9 | 1399.7 | 1380.6
m1 = 0.02772 | 949.696 | 944.925 | 940.169 | 935.363 | 930.568 | 1457.4 | 1438.3 | 1419 | 1399.9 | 1380.8
m1 = 0.03952 | 952.113 | 947.355 | 942.581 | 937.793 | 932.985 | 1457.4 | 1438.3 | 1419.2 | 1400.1 | 1381.1
m1 = 0.05628 | 955.509 | 950.747 | 945.976 | 941.193 | 936.398 | 1457.5 | 1438.3 | 1419.2 | 1400.2 | 1381.2
m1 = 0.06961 | 958.2 | 953.444 | 948.677 | 943.893 | 939.103 | 1457.3 | 1438.3 | 1419.3 | 1400.3 | 1381.4
m1 = 0.08918 | 962.098 | 957.344 | 952.579 | 947.802 | 943.015 | 1457.1 | 1438.2 | 1419.2 | 1400.3 | 1381.5
m1 = 0.1114 | 966.493 | 961.744 | 956.98 | 952.205 | 947.419 | 1456.8 | 1438 | 1419.1 | 1400.3 | 1381.6
m1 = 0.1344 | 971.012 | 966.262 | 961.501 | 956.728 | 951.947 | 1456.6 | 1437.8 | 1419 | 1400.3 | 1381.6
m1 = 0.1671 | 977.356 | 972.601 | 967.839 | 963.068 | 958.29 | 1456.4 | 1437.6 | 1418.8 | 1400.2 | 1381.6

O=S(=O)([O-])C(F)(F)F.O=S(=O)([O-])C(F)(F)F.[Mg+2] [magnesium triflate] + CC(=O)N(C)C
Conditions | mass density, 298.15 K [kg/m3] | mass density, 303.15 K [kg/m3] | mass density, 308.15 K [kg/m3] | mass density, 313.15 K [kg/m3] | mass density, 318.15 K [kg/m3] | speed of sound, 298.15 K [m/s] | speed of sound, 303.15 K [m/s] | speed of sound, 308.15 K [m/s] | speed of sound, 313.15 K [m/s] | speed of sound, 318.15 K [m/s]
m1 = 0.009142 | 938.272 | 933.667 | 929.056 | 924.433 | 919.8 | 1456.4 | 1436.7 | 1416.9 | 1397.2 | 1377.7
m1 = 0.01469 | 939.459 | 934.86 | 930.249 | 925.632 | 921.007 | 1456.7 | 1436.9 | 1417.2 | 1397.6 | 1378.1
m1 = 0.02251 | 941.134 | 936.55 | 931.947 | 927.333 | 922.714 | 1457 | 1437.3 | 1417.7 | 1398.1 | 1378.6
m1 = 0.03194 | 943.119 | 938.53 | 933.932 | 929.324 | 924.71 | 1457.4 | 1437.8 | 1418.2 | 1398.6 | 1379.2
m1 = 0.04489 | 945.817 | 941.246 | 936.655 | 932.054 | 927.445 | 1457.9 | 1438.3 | 1418.8 | 1399.3 | 1379.9
m1 = 0.05714 | 948.308 | 943.72 | 939.134 | 934.538 | 929.945 | 1458.3 | 1438.8 | 1419.3 | 1399.9 | 1380.6
m1 = 0.07138 | 951.266 | 946.705 | 942.126 | 937.537 | 932.941 | 1458.9 | 1439.4 | 1419.9 | 1400.6 | 1381.3
m1 = 0.08889 | 954.777 | 950.211 | 945.637 | 941.054 | 936.462 | 1459.5 | 1440.1 | 1420.7 | 1401 | 1382.1
m1 = 0.1071 | 958.463 | 953.905 | 949.338 | 944.772 | 940.1 | 1460 | 1440.7 | 1421.3 | 1401.9 | 1382.8
m1 = 0.1341 | 963.77 | 959.1 | 954.5 | 950 | 945.4 | 1460.7 | 1441.5 | 1422.3 | 1403.2 | 1384.2

O=S(=O)([O-])C(F)(F)F.O=S(=O)([O-])C(F)(F)F.[Mg+2] [magnesium triflate] + CN(C)C=O
Conditions | mass density, 298.15 K [kg/m3] | mass density, 303.15 K [kg/m3] | mass density, 308.15 K [kg/m3] | mass density, 313.15 K [kg/m3] | mass density, 318.15 K [kg/m3] | speed of sound, 298.15 K [m/s] | speed of sound, 303.15 K [m/s] | speed of sound, 308.15 K [m/s] | speed of sound, 313.15 K [m/s] | speed of sound, 318.15 K [m/s]
m1 = 0.01036 | 946.019 | 941.245 | 936.47 | 931.673 | 926.87 | – | – | – | – | –
m1 = 0.01706 | 947.369 | 942.601 | 937.828 | 933.038 | 928.233 | 1457.4 | 1438.2 | 1418.9 | 1399.7 | 1380.5
m1 = 0.0217 | 948.297 | 943.537 | 938.762 | 933.973 | 929.172 | 1457.3 | 1438.2 | 1418.9 | 1399.8 | 1380.7
m1 = 0.03662 | 951.268 | 946.512 | 941.741 | 936.956 | 932.159 | 1457.3 | 1438.2 | 1419.1 | 1400 | 1380.9
m1 = 0.0512 | 954.144 | 949.392 | 944.627 | 939.848 | 935.055 | 1457.3 | 1438.2 | 1419.1 | 1400.1 | 1381.1
m1 = 0.06466 | 956.788 | 952.038 | 947.275 | 942.499 | 937.711 | 1457.2 | 1438.2 | 1419.1 | 1400.2 | 1381.2
m1 = 0.082 | 960.152 | 955.393 | 950.635 | 945.853 | 941.072 | 1457.1 | 1438.1 | 1419.1 | 1400.2 | 1381.3
m1 = 0.102 | 964.032 | 959.291 | 954.537 | 949.768 | 944.991 | 1456.9 | 1438 | 1419.1 | 1400.2 | 1381.5
m1 = 0.1234 | 968.107 | 963.366 | 958.615 | 953.853 | 949.079 | 1456.7 | 1437.9 | 1419 | 1400.3 | 1381.5
m1 = 0.1544 | 974.074 | 969.343 | 964.6 | 959.846 | 955.083 | 1456.4 | 1437.6 | 1418.9 | 1400.2 | 1381.6
